For data set [1], the system named is PC12-ND6 cells. Briefly: ROS (superoxide anions) by MitoSOX live cell confocal microscopy. The following applies: NaBt 5 mM, three days. The class given is cell-based. Here is the method:
PC12-ND6 cells were grown in the absence or presence of NaBt (5 mM) for three days before being labeled with the MitoSox™ dye and the nuclear counterstain Hoechst 33342 and analyzed by live cell confocal imaging. Images are representative of three independent experiments. Scale bar represents 10 μm.
On the basis that increased ΔΨm could result in elevated ROS levels due to electron leakage through the mitochondrial electron transfer chain (ETC), the relative levels of superoxide anions (O2^−) were measured by live cell confocal microscopy using the redox-sensitive fluorogenic live-cell permeant dye MitoSOX™, as described in Uittenbogaard et al., 2010b.

Another data set has as its system NRF-1. The experiment in a line: Quantitative immunoblot analysis of NRF-1. The class given is cell-based. The following applies: NaBt treatment, PC12-ND6. From the text: FIG. 11A-11D are images from microscopy and graphs showing NaBt promotes mtDNA replication via the NRF-1/Tfam axis. (A) Confocal analysis of mtDNA foci; scale bar=5 (B) Quantitative analysis of mtDNA copy number by PCR; *p<0.001. (C, D) Quantitative immunoblot analysis of NRF-1 and Tfam; *p<0.001.
NaBt enhances mtDNA replication via the PGC1α-mediated NRF-1/Tfam axis. It was investigated whether NaBt enhanced mtDNA replication using the PicoGreen® dye to label mtDNA. PC12-ND6 cells were transfected with the mito-dsRed vector prior to NaBt treatment followed by PicoGreen® staining. […] To corroborate enhanced mitochondrial biogenesis, two key target genes of PGC1α were examined, the NRF-1 transcription factor and its direct target gene Tfam, both essential for mitochondrial biogenesis. […] The findings confirm the NaBt-mediated modulation of mitochondrial biogenesis and mtDNA replication in neuronal cells.
(A western blot detects proteins with antibodies after separation by electrophoresis.)

The subject of data set [2] is E17.5 hippocampal progenitor cells. Briefly: Neuronal differentiation to stage 3 (β-III tubulin immunostaining). The class given is cell-based. The following applies: NaBt 2 mM at 1DIV, read at 3DIV, no glial feeder layer; untreated 20%. From the text:
FIG. 12A-12B are images from microscopy and a graph showing that NaBt concomitantly increases the mitochondrial biomass of E17.5 hippocampal progenitor cells and their neuronal differentiation. (A) High-resolution tile-stacked confocal micrographs of untreated and NaBt-treated E17.5 hippocampal neurons labeled with β-III tubulin (red) and nuclear counterstain DAPI (blue) at 3DIV with insets showing high magnification of the neuritic network. Scale bar represents 20 μm. (B) Graph of percent of β-III tubulin^+ cells having reached the neuronal stage 3. Mean±S.D. (n=250 cells for each condition; *p=0.0001).
Sodium butyrate-mediated increase in mitochondrial mass correlates with accelerated and enhanced neuronal differentiation of hippocampal progenitor cells. Since broad spectrum HDACis induce neuronal differentiation of adult neural progenitors (reviewed by Lee and Lee, 2010), it was assessed whether increase in mitochondrial mass upon NaBt exposure could accelerate the timing of the neuronal developmental stages of cultured E17.5 hippocampal progenitor cells in the absence of astroglial trophic support. To test this hypothesis, the well-defined chronology of the distinct phenotypic differentiation stages of cultured embryonic hippocampal cells was relied on. […] At 3DIV, cells were immunostained for the pan-neuronal marker β-III tubulin to quantify the percent of cells at stage 3.

Data set [3] deals with PC12-ND6 cells. Briefly: Mitochondrial mass under chloramphenicol (mito-GFP live-cell confocal microscopy). The data set is classed as cell-based. The following applies: NaBt prior to chloramphenicol, up to highest concentration. The text has this: FIG. 14A-14E are images from microscopy showing that pre-treatment of PC12-ND6 cells with NaBt prevents chloramphenicol-mediated decrease of mitochondrial mass. (A) Graph of PC12-ND6 cell death upon exposure to different concentrations of chloramphenicol (Cm). Percent of cell death±SEM (n=250 cells). (B) Quantitative immunoblot analysis of mitochondrial-encoded MT-CO1 protein (green) and nuclear-encoded SDH-A protein (red) in Cm-treated PC12-ND6 cells. (C) Graph of MT-CO1/SDH-A ratio normalized to untreated PC12-ND6 cells. Mean±SEM (n=3; compared to untreated cells *p=0.0052, **p=0.0048, and ***p=0.0034). (D) Confocal micrographs of untreated and Cm-treated PC12-ND6 cells transfected with the vector mito-GFP. Scale bar represents 5 μm. (E) Confocal micrographs of NaBt pre-treated PC12-ND6 cells transfected with the vector mito-GFP and exposed to Cm. Scale bar represents 5 μm.
The efficacy of chloramphenicol treatment was determined by simultaneously examining the expression levels of the nuclear-encoded succinate dehydrogenase (SDH-A) subunit of Complex II and the mitochondrial-encoded subunit I of Complex IV (MT-COI) using a quantitative immunoblot approach. […] The effect of chloramphenicol on mitochondrial mass by live-cell confocal microscopy using PC12-ND6 cells transfected with the vector mito-GFP was confirmed.

Data set [4] concerns healthy and MELAS fibroblasts. The experiment in a line: Dose-dependent studies for optimal safe concentrations. The following applies: three days of treatment. The data set is classed as cell-based, human. From the text: Experimental approaches. Five distinct molecular tools were used to investigate mitochondrial biogenesis: 1) the mitochondrial-specific dyes, MitoTracker® Green (MTG) and MitoTracker® Red (MTR); 2) the mito-GFP or mito-dsRed vector to fluorescently label mitochondria; 3) antibodies against mtDNA, COXVα, or SOD2; 4) the fluorescent PicoGreen® dye labeling mtDNA; and 5) quantitative PCR to determine mtDNA copy number.
Butyrates rescue the mitochondrial mass, morphology, networking, membrane potential, and cellular ATP levels in MELAS fibroblasts. Skin fibroblasts from two MELAS patients and from a healthy subject as a control were used. Dose-dependent analyses of butyrates to determine their best concentrations for eliciting an optimal mitochondrial response without cellular toxicity was performed. Healthy and MELAS fibroblasts were treated with PBS, NaBt (2.5 mM), TBN (1.5 mM), or AN9 (300 μM) for three days before labeling with the MTG dye for live cell confocal analysis.

Entries after “also recorded” stand apart in the source; their conditions may differ.

Take `CCCC(=O)[O-].[Na+]` [NaBt, sodium butyrate]: the ROS production entry in the data set with PC12-ND6 cells [1] is on record as “does not trigger ROS generation; also recorded: failed to generate ROS production”. In addition, the NRF-1 expression result in the data set with NRF-1 is “increased on day 1”. Also, the “percent of neurons advanced to stage 3” value in data set [2] is 90%. Further, the “mitochondrial biomass with NaBt pre-treatment” value with PC12-ND6 cells [3] was “sustain their mitochondrial biomass”. For the same compound, the “optimal safe concentration for eliciting maximal mitochondrial biogenesis without cellular toxicity” value in data set [4] came out at 2.5 mM.

The values above are taken from patent publication US10272056B2, “Treatment for mitochondrial diseases” (The George Washington University a Congressionally …, priority 2015, dated 2019).
